Test results reported in patent publication US20020128301A1, “Non-nucleoside reverse transcriptase inhibitors” (priority 1998, published 2002).

Assay: Bioavailability: release of the mother compound of Formula P-2 from orally administered prodrugs in rats, plasma assayed by HPLC
Settings: oral, propylene glycol vehicle, fasted male Sprague Dawley rats, dose corresponding to […]; released drug (1S,2S)-N-[cis-2-(6-fluoro-2-hydroxy-3-propionylphenyl)cyclopropyl]-N'-[2-(5-cyanopyridyl)]urea measured in plasma
Experimental: At 30, 60, 120, 240 & 360 minutes, 0.2 ml blood were collected, centrifuged and frozen for later analysis. […] Aliquots comprising 40-100 μl of each plasma sample are mixed with an equal volume of acetonitrile (10 seconds, Vibrofex). The sample is centrifuged (2 min, 14000 RPM) and 30 μl the supernatant is injected into an HPLC system, as follows.

Bioavailability 0-6 hours [%] | Structure (SMILES)
70 | CCC(=O)c1ccc(F)c([C@@H]2C[C@@H]2NC(=O)Nc2ccc(C#N)cn2)c1OC(=O)OCOC(=O)[C@@H](N)C(C)C (relative stereo) [Example 7, (1S,2S)-N-[cis-2-(6-fluoro-2-(L-valyloxy)methoxycarbonyloxy-3-propionylphenyl)cyclopropyl]-N′-[2-(5-cyanopyridyl)]urea]
50 | CCC(=O)c1ccc(F)c([C@@H]2C[C@@H]2NC(=O)Nc2ccc(C#N)cn2)c1OCOC(=O)OC(COC(=O)[C@@H](N)C(C)C)COC(=O)[C@@H](N)C(C)C (relative stereo) [Example 6]

Structure (SMILES) | Bioavailability 0-6 hours [%]
CCC(=O)c1ccc(F)c([C@@H]2C[C@@H]2NC(=O)Nc2ccc(C#N)cn2)c1OCOC(=O)[C@@H](N)[C@@H](C)CC (relative stereo) [Example 1, (1S, 2S)-N-{cis-2-[6-fluoro-2-(L-isoleucyloxymethyloxy)-3-propionylphenyl]cyclopropyl}-N′-[2-(5-cyanopyridyl)]urea] | 34
